For data set [1], the target named is C-C chemokine receptor type 2 (Homo sapiens, UniProt P41597). Nature of the data set: Antagonist activity at CCR2 in human whole blood assessed as inhibition of CCL2-induced CD11b upregulation. Format: functional, tissue-based.
The nature of data set [2]: Protein binding in mouse plasma assessed as unbound fraction at 1 uM by equilibrium dialysis method. Format: ADME, cell-free.
A short description of data set [3]: AUC (0 to 24 hrs) in dog at 1 mg/kg, po. It counts as ADME, organism-based, Canis lupus familiaris. Also on record: time < 24 hr, route oral, dose 1 mg/kg. The settings on record: in vivo.
Data set [4] in a line: Oral bioavailability in cynomolgus monkey at 1 mg/kg. Format: ADME, organism-based, Macaca fascicularis. The settings on record: in vivo.
Data set [5] deals with C-C chemokine receptor type 2 (Mus musculus, UniProt P51683). Nature of the data set: Displacement of [125I]-CCL2 from mouse CCR2. (In a radioligand displacement assay an active substance lowers the binding of a labelled ligand.)
Data set [6] is described as follows: Protein binding in rat plasma assessed as unbound fraction at 1 uM by equilibrium dialysis method. It counts as ADME, cell-free.
Data set [7] in a line: Protein binding in human plasma assessed as unbound fraction at 1 uM by equilibrium dialysis method. Format: ADME, cell-free.
Data set [8] in a line: Clearance in mouse at 2 mg/kg, iv. Particulars: in vivo. It counts as ADME, organism-based.
The nature of data set [9]: Stability in human liver microsomes assessed as half life at 0.5 uM measured up to 45 mins in the presence of NADPH by LC-MS/MS analysis. Format: ADME, Microsome. In general terms: Microsomes from liver hold many membrane-bound enzymes, among them those of drug oxidation.
Data set [10] can be described thus: AUC (0 to 24 hrs) in cynomolgus monkey at 1 mg/kg, po. Format: ADME, organism-based, Macaca fascicularis. Also on record: time < 24 hr, route oral, dose 1 mg/kg. The settings on record: in vivo.
Data set [11] can be described thus: Oral bioavailability in rat at 10 mg/kg. It counts as ADME, organism-based. The settings on record: in vivo.
Data set [12] in a line: Oral bioavailability in mouse at 10 mg/kg. Format: ADME, organism-based. Particulars: in vivo.
Data set [13] concerns the target T1, C-C chemokine receptor type 4 (Homo sapiens, UniProt P51679).
T1 sequence (P51679 whole entry): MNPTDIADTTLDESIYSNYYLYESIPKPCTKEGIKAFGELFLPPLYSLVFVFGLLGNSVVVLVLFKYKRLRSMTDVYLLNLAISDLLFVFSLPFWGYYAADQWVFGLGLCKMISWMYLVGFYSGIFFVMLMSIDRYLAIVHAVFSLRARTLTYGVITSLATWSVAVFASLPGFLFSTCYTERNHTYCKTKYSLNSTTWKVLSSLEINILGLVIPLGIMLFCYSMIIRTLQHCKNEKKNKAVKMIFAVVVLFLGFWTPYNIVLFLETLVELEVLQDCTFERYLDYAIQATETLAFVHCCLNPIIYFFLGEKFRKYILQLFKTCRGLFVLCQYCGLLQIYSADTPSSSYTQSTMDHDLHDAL
Nature of the data set: Displacement of [125I]chemokine from CCR4 (unknown origin) by gamma counter method.

A further data set is filed under the species Homo sapiens. Nature of the data set: Selectivity ratio of IC50 for displacement of [125I]-CCL2 from CCR2 in human PBMC cells to IC50 for displacement of [125I]-MIP-1beta from CCR5 in human peripheral T cells. Format: cell-based.
The nature of data set [14]: Stability in mouse liver microsomes assessed as half life at 0.5 uM measured up to 45 mins in the presence of NADPH by LC-MS/MS analysis. It counts as ADME, Microsome.
Another data set has as its system Mus musculus. Nature of the data set: Antiinflammatory activity against human CCR2 knock-in thioglycollate-induced peritonitis C57BL/6 mouse model assessed as reduction in inflammatory monocyte and macrophage infiltration in peritoneum administered orally twice daily for 2 days with first dose 1 hr prior to thioglycollate challenge. The settings on record: dose 10-160 mg/kg, time 2.0 day. Format: functional, organism-based.

The target of data set [15] is T2, C-X-C chemokine receptor type 2 (Homo sapiens, UniProt P25025).
T2 sequence (P25025 whole entry): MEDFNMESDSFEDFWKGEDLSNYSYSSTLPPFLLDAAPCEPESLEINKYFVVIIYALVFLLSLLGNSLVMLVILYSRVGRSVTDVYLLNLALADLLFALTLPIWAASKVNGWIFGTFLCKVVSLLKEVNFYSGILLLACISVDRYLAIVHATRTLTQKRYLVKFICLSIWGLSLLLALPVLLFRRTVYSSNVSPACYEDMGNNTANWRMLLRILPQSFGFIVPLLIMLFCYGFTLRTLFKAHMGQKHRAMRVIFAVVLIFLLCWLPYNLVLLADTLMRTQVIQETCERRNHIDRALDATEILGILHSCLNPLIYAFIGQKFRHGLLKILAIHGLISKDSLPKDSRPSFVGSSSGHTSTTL
The experiment in a line: Displacement of [125I]-interleukin-8 from human CXCR2 expressed in human pEAK rapid cells incubated for 90 mins by microscintillation counting analysis. Format: cell-based.

For data set [16], the target named is T3, C-C chemokine receptor type 1 (Homo sapiens, UniProt P32246).
T3 sequence (P32246 whole entry): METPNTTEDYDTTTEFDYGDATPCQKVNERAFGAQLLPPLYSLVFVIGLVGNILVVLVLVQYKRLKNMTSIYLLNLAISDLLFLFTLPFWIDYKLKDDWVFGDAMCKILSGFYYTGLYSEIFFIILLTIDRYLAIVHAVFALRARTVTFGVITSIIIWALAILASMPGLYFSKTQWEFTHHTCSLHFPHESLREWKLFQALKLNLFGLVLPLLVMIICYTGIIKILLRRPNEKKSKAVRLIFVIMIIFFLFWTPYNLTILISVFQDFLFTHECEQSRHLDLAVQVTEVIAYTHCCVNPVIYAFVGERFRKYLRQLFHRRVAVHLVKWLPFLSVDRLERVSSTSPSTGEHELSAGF
Nature of the data set: Displacement of [125I]MIP-1alpha from CCR1 in human THP-1 cells incubated for 12 hrs by radioligand competition assay. It counts as cell-based.

Data set [17] is described as follows: Stability in rat liver microsomes assessed as half life at 0.5 uM measured up to 45 mins in the presence of NADPH by LC-MS/MS analysis. Format: ADME, Microsome.
For a further data set, the target named is hERG (KCNH2) (Homo sapiens, UniProt Q12809). Nature of the data set: Inhibition of human ERG expressed in HEK293 cells at 30 uM by patch-clamp assay relative to control. Format: cell-based. The settings on record: HEK293 cells that express hERG. For orientation: Patch clamp records ionic current or voltage across a cell membrane.
The nature of data set [18]: Permeability of the compound at pH 5.5 by PAMPA. Format: ADME. The settings on record: read-out: permeability.
A short description of data set [19]: Oral bioavailability in dog at 1 mg/kg. The settings on record: in vivo. It counts as ADME, organism-based, Canis lupus familiaris.
Data set [20] in a line: Clearance in dog at 1 mg/kg, iv. It counts as ADME, organism-based, Canis lupus familiaris. Particulars: in vivo.
A short description of data set [21]: AUC (0 to 24 hrs) in mouse at 10 mg/kg, po. The settings on record: in vivo. Format: ADME, organism-based. Also on record: time < 24 hr, route oral, dose 10 mg/kg.
Data set [22] can be described thus: Clearance in cynomolgus monkey at 1 mg/kg, iv. It counts as ADME, organism-based, Macaca fascicularis. The settings on record: in vivo.
Data set [23] is described as follows: Clearance in rat at 2 mg/kg, iv. Format: ADME, organism-based. The settings on record: in vivo.
Data set [24] is described as follows: AUC (0 to 24 hrs) in rat at 10 mg/kg, po. Format: ADME, organism-based. Also on record: time < 24 hr, route oral, dose 10 mg/kg. Particulars: in vivo.

Sequence of hERG (KCNH2) (Q12809 whole entry): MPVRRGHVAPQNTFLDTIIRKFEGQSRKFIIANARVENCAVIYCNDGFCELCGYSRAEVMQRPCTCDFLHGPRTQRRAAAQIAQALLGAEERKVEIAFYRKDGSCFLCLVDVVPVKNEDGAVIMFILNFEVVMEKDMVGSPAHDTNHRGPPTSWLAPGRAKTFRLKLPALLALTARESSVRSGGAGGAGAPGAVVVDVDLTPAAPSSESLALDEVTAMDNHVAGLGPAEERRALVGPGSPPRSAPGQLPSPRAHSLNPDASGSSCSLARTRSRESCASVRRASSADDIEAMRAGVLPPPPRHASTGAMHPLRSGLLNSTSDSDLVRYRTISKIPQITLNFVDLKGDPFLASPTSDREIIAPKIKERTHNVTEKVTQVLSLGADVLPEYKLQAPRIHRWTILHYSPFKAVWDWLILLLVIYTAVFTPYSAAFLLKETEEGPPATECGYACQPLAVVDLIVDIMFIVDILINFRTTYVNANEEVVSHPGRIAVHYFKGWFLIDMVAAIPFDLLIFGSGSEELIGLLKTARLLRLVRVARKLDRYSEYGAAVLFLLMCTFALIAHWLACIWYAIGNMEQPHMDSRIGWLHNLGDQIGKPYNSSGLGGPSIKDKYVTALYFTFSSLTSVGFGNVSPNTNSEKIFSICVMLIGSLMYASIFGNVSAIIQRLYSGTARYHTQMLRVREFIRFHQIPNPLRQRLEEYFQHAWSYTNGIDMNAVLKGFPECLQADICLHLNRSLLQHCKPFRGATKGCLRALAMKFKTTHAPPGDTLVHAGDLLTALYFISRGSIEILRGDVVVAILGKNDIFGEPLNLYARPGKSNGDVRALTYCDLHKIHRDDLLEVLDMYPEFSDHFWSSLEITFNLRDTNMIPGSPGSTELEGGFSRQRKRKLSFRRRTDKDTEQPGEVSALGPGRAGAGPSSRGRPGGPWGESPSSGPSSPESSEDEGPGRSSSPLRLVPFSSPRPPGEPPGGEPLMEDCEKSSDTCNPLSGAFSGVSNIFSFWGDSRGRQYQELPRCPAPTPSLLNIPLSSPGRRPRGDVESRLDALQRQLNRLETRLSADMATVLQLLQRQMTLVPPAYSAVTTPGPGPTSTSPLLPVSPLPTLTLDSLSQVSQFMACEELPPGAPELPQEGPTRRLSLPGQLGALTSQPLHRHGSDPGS
Sequence of C-C chemokine receptor type 2 (Homo sapiens, UniProt P41597) (P41597 whole entry): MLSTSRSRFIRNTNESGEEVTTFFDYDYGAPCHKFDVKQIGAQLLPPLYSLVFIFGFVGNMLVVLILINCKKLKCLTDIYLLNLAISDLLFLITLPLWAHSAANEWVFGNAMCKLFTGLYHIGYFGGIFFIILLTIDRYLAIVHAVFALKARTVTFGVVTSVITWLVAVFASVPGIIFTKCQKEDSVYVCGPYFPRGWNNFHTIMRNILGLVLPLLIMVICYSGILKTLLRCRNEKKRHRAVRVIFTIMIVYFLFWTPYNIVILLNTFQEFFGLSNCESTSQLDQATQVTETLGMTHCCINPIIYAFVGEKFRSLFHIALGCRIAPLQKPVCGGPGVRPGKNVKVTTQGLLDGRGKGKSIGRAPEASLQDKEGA
Sequence of C-C chemokine receptor type 2 (Mus musculus, UniProt P51683) (P51683 whole entry): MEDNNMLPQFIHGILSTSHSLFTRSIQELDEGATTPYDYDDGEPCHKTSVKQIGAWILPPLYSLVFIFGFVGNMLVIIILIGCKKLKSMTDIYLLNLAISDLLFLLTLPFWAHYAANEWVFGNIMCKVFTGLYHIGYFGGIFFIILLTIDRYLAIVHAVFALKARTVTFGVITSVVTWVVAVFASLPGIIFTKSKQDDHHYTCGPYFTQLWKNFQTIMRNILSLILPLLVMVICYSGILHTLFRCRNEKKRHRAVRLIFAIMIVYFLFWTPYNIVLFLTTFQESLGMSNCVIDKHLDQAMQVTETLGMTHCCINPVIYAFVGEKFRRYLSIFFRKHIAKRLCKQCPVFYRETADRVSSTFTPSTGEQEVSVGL

One may read the IC50 as the midpoint of a concentration-inhibition curve. `CC(=O)N[C@@H]1C[C@H](NC(C)(C)C)CC[C@@H]1N1CC[C@H](Nc2ncnc3ccc(C(F)(F)F)cc23)C1=O`: the IC50 in data set [1] worked out at 2.6 nM.
As usually defined, the fraction unbound is free concentration divided by total concentration. Broadly, the AUC(0-t) is exposure summed from dosing to a finite time, without extrapolation to infinity. The term bioavailability denotes the share of a dose that reaches the circulation, judged against a reference dose that is usually intravenous. As usually defined, the clearance is a measure of how efficiently the substance is removed, as volume per time. The half-life is how long it takes for the measured level to halve. By inhibition is commonly meant the drop in the measured response relative to a control, in per cent. As for `CC(=O)N[C@@H]1C[C@H](NC(C)(C)C)CC[C@@H]1N1CC[C@H](Nc2ncnc3cc(C(C)(C)C)nn23)C1=O` [BMS-813160], the unbound share (fraction unbound) at 1 µM in data set [2] is 0.58; in data set [6], 0.69; in data set [7], 0.71. The AUC(0-t) at 24 h in [3] was 1.23 µM·h; in data set [10], 1.3 µM·h; in [21], 5.41 µM·h; in [24] it was 6.5 µM·h. The bioavailability was found to be 63% in [4], 94% in data set [11], 100% in data set [12] and 61% in data set [19]. Further, the IC50 in data set [5] is 45 nM; in data set [13], above 40000 nM; in [15], above 40000 nM; in data set [16], above 25000 nM. Besides, the clearance in data set [8] stood at 85 mL/min/kg; in data set [20] it was 17 mL/min/kg; in data set [22], 16 mL/min/kg; in [23], 50 mL/min/kg. The half-life at 0.5 µM in data set [9] was 2.43 h; in data set [14] it was above 3.33 h; in data set [17], above 3.33 h. The Ratio IC50 in the data set filed under Homo sapiens was found to be 2. Also, in the data set with Mus musculus, the Activity result was “Dose-Dependent Effect”. Moreover, the inhibition at 30 µM against hERG (KCNH2) amounted to 9%. In addition, the Papp in data set [18] turned out to be 1.9 ×10⁻⁶ cm/s.
